# Measurements from a melting point compilation (Tetko et al.; mined from patent text by program, amines drawn as free bases though some values may be those of a salt).
row,melting point,SMILES
1,227 to 229 °C,COc1ccc2c(c1)c1c(n2C)CCC(Cc2nc[nH]c2C)C1=O (centres undefined)
2,111 to 113 °C,CC(C)(C)OC(=O)NCC12CN(c3c(F)cc4c(=O)c(C(=O)O)cn(C5CC5)c4c3Cl)CC1CCO2 (centres undefined)
3,83 to 86 °C,OC1Sc2ccccc2-c2ccccc21 (centres undefined)
4,108 to 110 °C,O=C(O)c1ccc(F)c(C(F)(F)F)c1F
5,108 to 110 °C,O=C1CN(c2nccc(Oc3ccc(NC(=O)c4cc(F)cc(N5CCOCC5)c4)c4ccccc34)n2)CCN1
6,299 °C,Cn1cc(-c2cc(-c3cnc4[nH]ccc4c3)ccn2)n(-c2ccc(C(C)(C)C(N)=O)cc2)c1=O
7,64 to 66 °C,CC(C)Oc1ccc(/C=C(\NC(=O)c2ccc(OCCCC3CC3)cc2)C(=O)NCCO)cc1
8,99 to 100 °C,N#Cc1c(N)cccc1Sc1cccc(N)c1
9,186 to 187 °C,O=C(O)c1cc(OCCCOc2ccc(-c3ccccc3)cc2)cc(OCCCOc2ccc(-c3ccccc3)cc2)c1
10,119 to 120 °C,Cc1cncc(-c2cncc(OC3SCC(O)C(O)C3O)c2)c1 (centres undefined)
11,125 to 130 °C,OCC1OC(n2cnc3c(NNC4CCOc5ccccc54)ncnc32)C(O)C1O (centres undefined)
12,162 °C,O=C(CC(CC(=O)c1ccc(F)cc1)c1cccc(-c2nnn[nH]2)c1)c1ccc(F)cc1
13,> 350 °C,COc1cccc2[nH]c(=O)n3c(=O)[nH]nc3c12
14,154 to 155 °C,Cc1ccc2c(c1)CC(=O)c1cc(CC(=O)O)ccc1O2
15,62 to 63 °C,O=S(c1ccccc1-c1ccccc1)C(F)(F)C(F)(F)C(F)(F)C(F)(F)C(F)(F)C(F)(F)C(F)(F)C(F)(F)F (centres undefined)
16,115 °C,CC(C)CCCC(C)C1CCC2C3CC=C4CC(OCCCCCCSC5OCC(O)C(O)C5O)CCC4(C)C3CCC12C (centres undefined)
17,106 to 108 °C,COCCOCCOc1cc(N)c(C#N)cc1[N+](=O)[O-]
18,160 to 162 °C,O=S(=O)(Cc1ccccc1)c1c(Cl)nc(Cl)nc1Cl
19,92 to 93 °C,C=CCOc1ccc(CCNC(=O)C(F)(F)F)cc1S(=O)(=O)N=CN(C)C
20,196 to 198 °C,CC(C)Oc1ccccc1C1(OC(=O)N2CCN(c3ccncc3)CC2)C(=O)Nc2ccc(Cl)cc21 (centres undefined)
21,113 to 115 °C,CCCCNc1ccc(-c2cc3ccccc3o2)cc1
22,189 to 191 °C,COc1cc(C(C)=O)ccc1OCCCCN1CCN(c2n[nH]c3cc(Cl)ccc23)CC1
23,> 260 °C,CCOC(=O)C1=C(N)NC2=C(C(=O)CCC2)C1c1cccc(C)n1 (centres undefined)

row,melting point,SMILES
1,144 to 145 °C,O=C(O)COc1ccccc1C(=O)NCc1ccc(Br)cc1F
2,168 to 169 °C,CCC(n1cncn1)C(O)(Cn1cncn1)c1ccc(Cl)cc1 (centres undefined)
3,98 to 101 °C,CC(C)CC1(C)C(=O)N(Cc2ccccc2)CCN1Cc1ccccc1 (centres undefined)
4,264 to 266 °C,CC(CCCn1c(C)nc2c(N)nc3ccccc3c21)=NO
5,163 to 165 °C,CCC(c1cccs1)c1c(O)c2c(oc1=O)CCCCCC2 (centres undefined)
6,162 to 163 °C,CCn1nc2c(N)nc3cc(OC)ccc3c2c1CCc1ccccc1
7,232 to 233 °C,CC(C)Oc1ccc2c(c1)N(C)C(=O)N(c1ccc(CC(=O)O)cc1)S2(=O)=O
8,153 °C,Cc1nn(C)c(C)c1Nc1ccc([N+](=O)[O-])cc1[N+](=O)[O-]
9,107 to 108 °C,CC(C)C(=O)CNC(=O)c1ccc(F)cc1
10,119 to 121 °C,CC(=O)c1cc(-c2ccncc2)sc1Oc1cc(F)ccc1F
11,280 °C,O=C(O)c1ccc(OC(F)F)c2oc3ccc(C(F)(F)F)cc3c12
12,220 to 222 °C,COc1ccc2ccccc2c1C(=O)/C=C/c1ncn(C(c2ccccc2)(c2ccccc2)c2ccccc2)c1C
13,166 to 167 °C,COc1cccc(-c2cc(F)cc3c2OC(CN)C3)c1OC (centres undefined)
14,70 to 75 °C,COC(=O)Cc1ccc(OCCNC(=O)C2Cc3ccccc3N2S(=O)(=O)c2ccc(-c3ccc(F)cc3OC)cc2)cc1 (centres undefined)
15,86 to 88 °C,CCOC(=O)C=Cc1cc([N+](=O)[O-])c(F)cc1Cl
16,132 to 133 °C,O=c1c2cnc(-c3ccccc3)nc2sn1CCc1ccccn1
17,63 to 64 °C,CCOC(=O)c1ccccc1CS(=O)(=O)Cl
18,158 to 160 °C,N#Cc1sc2cc(N)ccc2c1Cl
19,140 to 142 °C,CC1(C)SC(c2ccc3c(c2)CCC3)NC1C(=O)O (centres undefined)
20,> 260 °C,COc1cccc(OC)c1C(=O)Nc1nnc(-c2nc3ccccc3s2)s1
21,149 to 150 °C,O=C(c1ccccc1Cl)c1ccccc1C#CCN1C(=O)c2ccccc2C1=O
22,156 to 157 °C,N#CCCN1CCc2c3n(c4ccccc24)C(=O)CCC31 (centres undefined)
23,> 250 °C,O=C(Nc1nc(=O)[nH]s1)c1ccc2ccccc2c1

row,melting point,SMILES
1,102 to 103 °C,CCOC(=O)C(NC(=O)c1ccc(C)c(F)c1)C(=O)OCC
2,78.9 °C,"CC(c1ccccc1)N(C=O)CC#N (single isomer, unassigned; (+))"
3,243 to 245 °C,O=C(c1ccc([N+](=O)[O-])cc1)c1cc2c(c(Cl)c1Cl)OC(C(=O)O)C2 (centres undefined)
4,130 to 131 °C,CCOc1cc(CO)ccc1OCc1nc(-c2ccccc2)oc1C
5,154 to 156 °C,Nc1sc2c(c1C(=O)c1ccc(Br)s1)CCC2
6,153 °C,Cc1cccc(C(=O)CCSC(=S)Nc2ccc(Cl)cn2)c1
7,280 to 283 °C,O=C(CC12CC3CC(CC(C3)C1)C2)Nc1c(Cl)ccc2nc(N3CCNCC3)ccc12
8,45 to 46 °C,O=C(NCCNCc1ccccc1)c1ccc(Cl)cn1
9,123 to 124 °C,O=C(O)C(CCO)N1CCCC1=O (centres undefined)
10,276 to 278 °C,O=c1[nH]c2ncc(-c3ccc(-n4ccnn4)cc3)nc2n1CC1CCCCC1
11,72 to 74 °C,CCOC(=O)c1cc(=O)c2c(OCC(O)COc3cccc(C)c3)cccc2o1 (centres undefined)
12,88 to 92 °C,CCOC(Cc1ccc(OCc2nc3ccc(OC)cc3n2C)cc1)C(=O)OC (centres undefined)
13,184 to 185 °C,O=C(O)Cc1ccc(NC(=O)C(Cc2ccccc2)NS(=O)(=O)c2ccc(Br)cc2)cc1 (racemic)
14,46.8 to 49.2 °C,COCOc1ccc2cc(Br)ccc2c1
15,211 to 213 °C,OC1CC2(CCN(C3CCC3)CC2)Oc2ccccc21 (centres undefined)
16,97 to 99 °C,CCn1nccc1NC(=O)c1ccc(OC)c2oc(COC)cc12
17,100 to 105 °C,CSCC(C)(C)NC(=O)c1c(NC(=O)c2cc(C(F)(F)F)nn2-c2ncccc2Cl)ccc2cn[nH]c12
18,112 to 114 °C,CC/C(=C\C=C\C(=O)Oc1ccc([N+](=O)[O-])cc1)c1ccc(OC)cc1
19,272 to 274 °C,Cc1cc2ncc(NC(=O)C=Cc3ccc(O)c(O)c3)c(-c3ccccc3Cl)c2cc1C
20,157 to 159 °C,CC(=O)OCCOCc1nc2nccnc2c(=O)[nH]1
21,225 to 228 °C,CNS(=O)(=O)c1ccc(C2CCN(c3ccncc3)CC2)cc1
22,122 °C,CCC(=O)Nc1c(Cl)cnn1-c1ccc(Cl)c(Cl)c1Cl
23,54 to 55 °C,Cc1cc(C)c(CON)c(C)c1

row,melting point,SMILES
1,102 to 107 °C,Cn1c([N+](=O)[O-])cnc1C(C)(C)O
2,106 °C,CCCCCCCCCCCCCCCC(=O)OCC(F)(F)Cn1nc(C)c(-c2ccc3c(c2)NC(=O)CO3)c1-c1ccc(F)cc1
3,192 to 194 °C,Cc1cc(N)nc(-c2ccncc2)n1
4,158 to 160 °C,CN(C)C=Nc1[nH]nc(NCCNC(=O)OC(C)(C)C)c1C#N
5,123 to 126 °C,COCCOC(=O)C1=C(C)NC(C)C(C(=O)OC(C)C)(c2ccc(F)cc2F)C1 (centres undefined)
6,238 to 240 °C,Cc1nc(-c2ccc(NC(=O)OCc3ccccc3)cc2)c[nH]c1=O
7,83.5 to 85.5 °C,CC(=O)N(C)c1ccc(CO)cc1
8,118 to 123 °C,CC(C)N=C(NC(C)C)ON1C(C)(C)CC(O)CC1(C)C
9,211 to 213 °C,CCC(CC)CNC(=O)c1ccc(CN2C(=O)C3(COc4cc5c(cc43)CCO5)c3ccccc32)cc1 (centres undefined)
10,184 to 187 °C,O=C(O)CCc1cn(Cc2ccc(F)cc2)c2ccc(C(=O)CC(=O)C(=O)O)cc2c1=O
11,201 to 203 °C,CC(C)(Cn1c(CO)nc2c(N)nc3ccccc3c21)C(N)=O
12,153 °C,Cn1c2ccccc2c2c3c(ccc21)C(=O)OC3=O
13,58 °C,CN(CCCCCCNC(=NCCCOc1cccc(CN2CCCCC2)c1)NC#N)CCN(Cc1ccc(F)cc1)c1ccccn1
14,205 to 206 °C,CC(=O)OCc1c(Br)cccc1N1CCn2c(nc3c2CCCC3)C1=O
15,81 to 82 °C,CCCCOC(=O)Cc1nc(-c2ccc(F)cc2)oc1-c1ccsc1
16,58 to 62 °C,COc1cc(OC)c2c(c1OC)CCC(C(=O)Cc1cccc(F)c1)C2C#N (centres undefined)
17,158 to 165 °C,NC(=O)CC(C(N)=O)n1cccc1 (centres undefined)
18,84 to 86 °C,CC(=O)Oc1cc(Cl)c(Cl)c(Cl)c1N1CC(O)CC1=O (centres undefined)
19,190 °C,Cc1ccc(Nn2c(-c3ccccc3)c(C)[nH]c2=S)cc1Cl
20,212 to 215 °C,Cc1cccc(C)c1NC(=O)c1ccc([N+](=O)[O-])cc1
21,199 to 201 °C,CS(=O)(=O)Oc1ccc(N2CC(COc3ccc(C(=O)O)cc3)CC2=O)cc1 (centres undefined)
22,257 to 258 °C,Cc1cccc(C(=O)Nc2c[nH]nc2C(=O)NCC(F)(F)F)n1
23,169 to 170 °C,Cc1c(CC(N)=O)c2cc(OCc3nc4ccccc4s3)ccc2n1Cc1ccc(Cl)cc1

row,SMILES,melting point
1,CN1Cc2c(-c3nc(C4CC4)no3)ncn2-c2cccc(Br)c2C1=O,187 to 189 °C
2,Cc1cc(C(N)=O)ncc1C(SCCC=C(F)F)c1c(F)ccc(F)c1F (centres undefined),97 to 98 °C
3,CCCCCn1c2ccc(C(=O)O)cc2c2ccc(SC)cc21,211 to 212 °C
4,CC(C)(C)CCc1nn(-c2ccc(F)cc2F)c2c1C1CCC2C1 (centres undefined),54 to 57 °C
5,CC(=O)NC(NC(=O)c1ccccc1C(=O)O)C(=O)NCc1ccccc1 (centres undefined),186 to 188 °C
6,Cc1c(C(=O)C(N)=O)c2c(OCC(=O)O)cc3c(c2n1Cc1ccccc1)CCCC3,> 300 °C
7,O=C(Nc1ccc(Cl)cc1)ONC1=Nc2ccc(Cl)cc2C(c2ccccc2)=NC1,200 to 203 °C
